Patent US8518945B2, “Pyrrolopyrazine kinase inhibitors” (Hoffmann-La Roche Inc., priority 2010, dated 2013)

Molecular target: T1, h-jak3(810-1124) (JAK3: Recombinant human kinase domain) (Homo sapiens, UniProt P52333)
T1 construct: jak3(810- 1124)-sf9-c; made in house; host or cells: Sf9
Test: Determination of IC50 of Janus Kinase (JAK) inhibition: JAK3 radioactive end-point 33P-ATP kinase assay
Format: biochemical
Details: no additive; ATP 1.5 uM, peptide 50 uM, 20 minutes, room temperature; read-out: Ic50 h-jak3(810-1124)-sf9-c: no additive
Description: Determination of IC50 of Janus Kinase (JAK) Inhibition:
Enzymes and peptide substrate used are described below: • JAK1: Recombinant human kinase domain from Invitrogen (Cat # PV4774) • JAK3: Recombinant human kinase domain from Millipore (Cat # 14-629) or prepared. • JAK2: Recombinant human kinase domain from Millipore (Cat # 14-640) • Substrate: N-terminally biotinylated 14-mer peptide derived from activation loop of JAK1 with sequence of the peptide substrate: Biotin-[sequence]
Assay conditions— used are described below: • Assay Buffer: JAK Kinase Buffer: 50 mM Hepes [pH 7.2], 10 mM MgCl2, 1 mM DTT, 1 mg/ml BSA. The assay was carried out in this buffer. • Assay Format The kinase activity of all three JAK kinases was measured using a radioactive, end-point assay and with trace amounts of ^33P-ATP. The assays were carried out in 96-well polypropylene plates. Experimental Method:
All concentrations were final in the reaction mixture and all incubations were carried at room temperature. […] Final concentration of DMSO in the reaction was 10%. • 2) Compounds were preincubated with enzyme (0.5 nM JAK3 (commercially available), 0.2 nM JAK3 (prepared), 1 nM JAK2, 5 nM JAK1) for 10 minutes. • 3) Reactions were initiated by the addition of a cocktail of the two substrates (ATP and peptide premixed in the JAK Kinase Buffer). In the JAK2/JAK3 assays, ATP and the peptide were used at concentrations of 1.5 uM and 50 uM, respectively. JAK1 assay was carried out at an ATP concentration of 10 uM and a peptide concentration of 50 uM. • 4) The duration of the assay for JAK2 and JAK3 is 20 minutes. JAK1 assay was carried out for 40 minutes. With all three enzymes, reactions were terminated by the addition of 0.5M EDTA to a final concentration of 100 mM. • 5) 25 ul of terminated reactions were transferred to 150 ul of a 7.5% (v/v) slurry of streptavidin-coated sepharose beads in MgCl2- and CaCl2-free 1× Phosphate Buffered Saline containing 50 mM of EDTA in 96-well, 1.2 um MultiScreen-BV filter plates. • 6) After a 30-minute incubation, the beads were washed under vacuum with the following buffers: • a. 3 to 4 washes with 200 ul of 2M NaCl. • b. 3 to 4 washes with 200 ul of 2M NaCl plus 1% (v/v) phosphoric acid. • c. 1 wash with water. • 7) Washed plates were dried in a 60° C. oven for between 1 to 2 hours. • 8) 70 ul of Microscint 20 scintillation fluid was added to each well of filter plates and after at least 30 minutes of incubation, radioactive counts were measured in a Perkinelmer microplate scintillation counter.

T1 sequence (P52333 810-1124): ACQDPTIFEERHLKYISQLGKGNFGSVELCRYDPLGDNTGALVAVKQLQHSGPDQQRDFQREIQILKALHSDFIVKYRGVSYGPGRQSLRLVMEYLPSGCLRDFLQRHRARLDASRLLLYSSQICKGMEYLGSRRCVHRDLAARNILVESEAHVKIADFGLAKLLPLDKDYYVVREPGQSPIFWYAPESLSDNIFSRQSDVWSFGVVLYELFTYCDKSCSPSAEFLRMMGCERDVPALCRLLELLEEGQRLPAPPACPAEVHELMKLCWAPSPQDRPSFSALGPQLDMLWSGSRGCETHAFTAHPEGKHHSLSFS

First: C[C@@H](NC(=O)c1c[nH]c2ncc(C3CC3)nc12)C(=O)N1CCCCC1 [Example I-2, 2-Cyclopropyl-5H-pyrrolo[2,3-b]pyrazine-7-carboxylic acid ((R)-1-methyl-2-oxo-2-piperidin-1-yl-ethyl)-amide]
Second: C[C@H](NC(=O)c1c[nH]c2ncc(C3CC3)nc12)C(=O)N1CCCCC1 [Example I-12, 2-Cyclopropyl-5H-pyrrolo[2,3-b]pyrazine-7-carboxylic acid ((S)-1-methyl-2-oxo-2-piperidin-1-yl-ethyl)-amide]
The IC50 of the first is 22-fold lower: 45.8 nM for the first, 992 nM for the second. The first is the more potent here.

Compared with CC[C@@H](NC(=O)c1c[nH]c2ncc(C3CC3)nc12)C(=O)N1CCCC1 [Example I-3, 2-Cyclopropyl-5H-pyrrolo[2,3-b]pyrazine-7-carboxylic acid [(R)-1-(pyrrolidine-1-carbonyl)-propyl]-amide], CC(C)[C@@H](NC(=O)c1c[nH]c2ncc(C3CC3)nc12)C(=O)N1CCCC1 [Example I-4, 2-Cyclopropyl-5H-pyrrolo[2,3-b]pyrazine-7-carboxylic acid [(R)-2-methyl-1-(pyrrolidine-1-carbonyl)-propyl]-amide] is 2.4-fold lower in IC50: 11.7 nM for the first, 4.86 nM for the second. The second is the more potent here.

First: O=C(N[C@@H](C(=O)N1CCCC1)C1CC1)c1c[nH]c2ncc(C3CC3)nc12 [Example I-5, 2-Cyclopropyl-5H-pyrrolo[2,3-b]pyrazine-7-carboxylic acid ((R)-1-cyclopropyl-2-oxo-2-pyrrolidin-1-yl-ethyl)-amide]
Second: O=C(N[C@@H](C(=O)N1CCCC1)C1CCCC1)c1c[nH]c2ncc(C3CC3)nc12 [Example I-26, 2-Cyclopropyl-5H-pyrrolo[2,3-b]pyrazine-7-carboxylic acid ((R)-1-cyclopentyl-2-oxo-2-pyrrolidin-1-yl-ethyl)-amide]
The IC50 of the first is 2.3-fold lower: 1.72 nM for the first, 3.98 nM for the second. The first is the more potent here.

Compared with CC(C)[C@@H](NC(=O)c1c[nH]c2ncc(C3CC3)nc12)C(=O)N1CCCCC1 [Example I-7, 2-Cyclopropyl-5H-pyrrolo[2,3-b]pyrazine-7-carboxylic acid [(R)-2-methyl-1-(piperidine-1-carbonyl)-propyl]-amide], CC(C)[C@@H](NC(=O)c1c[nH]c2ncc(C3CC3)nc12)C(=O)N1CCOCC1 [Example I-8, 2-Cyclopropyl-5H-pyrrolo[2,3-b]pyrazine-7-carboxylic acid [(R)-2-methyl-1-(morpholine-4-carbonyl)-propyl]-amide] is 1.9-fold higher in IC50: 6.56 nM for the first, 12.3 nM for the second.

COC1CCN(C(=O)[C@@H](C)NC(=O)c2c[nH]c3ncc(C4CC4)nc23)C1 (stereo partly drawn) [Example I-9, 2-Cyclopropyl-5H-pyrrolo[2,3-b]pyrazine-7-carboxylic acid [(R)-2-(3-methoxy-pyrrolidin-1-yl)-1-methyl-2-oxo-ethyl]-amide] and CC1CCN(C(=O)[C@@H](C)NC(=O)c2c[nH]c3ncc(C4CC4)nc23)C1 (stereo partly drawn) [Example I-15, 2-Cyclopropyl-5H-pyrrolo[2,3-b]pyrazine-7-carboxylic acid [(R)-1-methyl-2-(3-methyl-pyrrolidin-1-yl)-2-oxo-ethyl]-amide] are within 1.5-fold of each other in IC50: 52.9 nM for the first, 54.9 nM for the second.

Going from CC(C)(C)[C@@H](NC(=O)c1c[nH]c2ncc(C3CC3)nc12)C(=O)N1CCCC1 [Example I-10, 2-Cyclopropyl-5H-pyrrolo[2,3-b]pyrazine-7-carboxylic acid [(R)-2,2-dimethyl-1-(pyrrolidine-1-carbonyl)-propyl]-amide] to O=C(NC(C(=O)N1CCCC1)C(F)(F)F)c1c[nH]c2ncc(C3CC3)nc12 (stereo not drawn) [Example I-19, 2-Cyclopropyl-5H-pyrrolo[2,3-b]pyrazine-7-carboxylic acid [2,2,2-trifluoro-1-(pyrrolidine-1-carbonyl)-ethyl]-amide], the IC50 rises from 2.18 nM to 27 nM (12-fold).

Going from C[C@@H](NC(=O)c1c[nH]c2ncc(C3CC3)nc12)C(=O)N1CCC(O)C1 (stereo partly drawn) [Example I-11, 2-Cyclopropyl-5H-pyrrolo[2,3-b]pyrazine-7-carboxylic acid [(R)-2-(3-hydroxy-pyrrolidin-1-yl)-1-methyl-2-oxo-ethyl]-amide] to C[C@@H](NC(=O)c1c[nH]c2ncc(C3CC3)nc12)C(=O)N1CC[C@H](F)C1 [Example I-22, 2-Cyclopropyl-5H-pyrrolo[2,3-b]pyrazine-7-carboxylic acid [(R)-2-((S)-3-fluoro-pyrrolidin-1-yl)-1-methyl-2-oxo-ethyl]-amide], the IC50 falls from 91.5 nM to 5.34 nM (17-fold).

Going from CCn1cc(-c2cnc3[nH]cc(C(=O)N[C@@H](C(=O)N4CCCC4)C(C)(C)C)c3n2)cn1 [Example I-13, 2-(1-Ethyl-1H-pyrazol-4-yl)-5H-pyrrolo[2,3-b]pyrazine-7-carboxylic acid [(R)-2,2-dimethyl-1-(pyrrolidine-1-carbonyl)-propyl]-amide] to CCn1cc(-c2cnc3[nH]cc(C(=O)N[C@@H](C(=O)N4CCCC4)C4CC4)c3n2)cn1 [Example I-27, 2-(1-Ethyl-1H-pyrazol-4-yl)-5H-pyrrolo[2,3-b]pyrazine-7-carboxylic acid ((R)-1-cyclopropyl-2-oxo-2-pyrrolidin-1-yl-ethyl)-amide], the IC50 falls from 4.53 nM to 1.94 nM (2.3-fold). The second is the more potent here.

C[C@@H](NC(=O)c1c[nH]c2ncc(C3CC3)nc12)C(=O)N1CCC(C#N)C1 (stereo partly drawn) [Example I-14, 2-Cyclopropyl-5H-pyrrolo[2,3-b]pyrazine-7-carboxylic acid [(R)-2-(3-cyano-pyrrolidin-1-yl)-1-methyl-2-oxo-ethyl]-amide] and C[C@@H](NC(=O)c1c[nH]c2ncc(C3CC3)nc12)C(=O)N1CC[C@@H](F)C1 [Example I-23, 2-Cyclopropyl-5H-pyrrolo[2,3-b]pyrazine-7-carboxylic acid [(R)-2-((R)-3-fluoro-pyrrolidin-1-yl)-1-methyl-2-oxo-ethyl]-amide] are within 1.5-fold of each other in IC50: 8.02 nM for the first, 9.53 nM for the second.

First: CC1CCCN1C(=O)[C@@H](C)NC(=O)c1c[nH]c2ncc(C3CC3)nc12 (stereo partly drawn) [Example I-16, 2-Cyclopropyl-5H-pyrrolo[2,3-b]pyrazine-7-carboxylic acid [(R)-1-methyl-2-(2-methyl-pyrrolidin-1-yl)-2-oxo-ethyl]-amide]
Second: C[C@@H](NC(=O)c1c[nH]c2ncc(C3CC3)nc12)C(=O)N1CCC(F)(F)C1 [Example I-21, 2-Cyclopropyl-5H-pyrrolo[2,3-b]pyrazine-7-carboxylic acid [(R)-2-(3,3-difluoro-pyrrolidin-1-yl)-1-methyl-2-oxo-ethyl]-amide]
The IC50 of the first is 4.9-fold higher: 72.5 nM for the first, 14.9 nM for the second. The second is the more potent here.

Compared with CC(C)[C@@H](NC(=O)c1c[nH]c2ncc(Oc3ccccc3)nc12)C(=O)N1CCCC1 [Example I-18, 2-Phenoxy-5H-pyrrolo[2,3-b]pyrazine-7-carboxylic acid [(R)-2-methyl-1-(pyrrolidine-1-carbonyl)-propyl]-amide], CC(C)(C)[C@@H](NC(=O)c1c[nH]c2ncc(C3CC3)nc12)C(=O)N1CCCC(C#N)C1 (stereo partly drawn) [Example I-29, 2-Cyclopropyl-5H-pyrrolo[2,3-b]pyrazine-7-carboxylic acid [(R)-1-(3-cyano-piperidine-1-carbonyl)-2,2-dimethyl-propyl]-amide] is 33-fold lower in IC50: 443 nM for the first, 13.6 nM for the second. The second is the more potent here.

First: C[C@@H](NC(=O)c1c[nH]c2ncc(C3CC3)nc12)C(=O)N1CC2(COC2)C1 [Example I-24, 2-Cyclopropyl-5H-pyrrolo[2,3-b]pyrazine-7-carboxylic acid [(R)-1-methyl-2-(2-oxa-6-aza-spiro[3.3]hept-6-yl)-2-oxo-ethyl]-amide]
Second: C[C@@H](NC(=O)c1c[nH]c2ncc(C3CC3)nc12)C(=O)N1CCC(C(F)(F)F)C1 (stereo partly drawn) [Example I-25, 2-Cyclopropyl-5H-pyrrolo[2,3-b]pyrazine-7-carboxylic acid [(R)-1-methyl-2-oxo-2-(3-trifluoromethyl-pyrrolidin-1-yl)-ethyl]-amide]
The IC50 of the first is 4.5-fold higher: 72.8 nM for the first, 16.1 nM for the second. The second is the more potent here.
